Measured values reported in ChEMBL document CHEMBL1125622 (J Med Chem, 1991).

B1: Dopamine beta-hydroxylase (Bos taurus), P15101 (protein)
chain: MQVPSPSVREAASMYGTAVAVFLVILVAALQGSAPAESPFPFHIPLDPEGTLELSWNISYAQETIYFQLLVRELKAGVLFGMSDRGELENADLVVLWTDRDGAYFGDAWSDQKGQVHLDSQQDYQLLRAQRTPEGLYLLFKRPFGTCDPNDYLIEDGTVHLVYGFLEEPLRSLESINTSGLHTGLQRVQLLKPSIPKPALPADTRTMEIRAPDVLIPGQQTTYWCYVTELPDGFPRHHIVMYEPIVTEGNEALVHHMEVFQCAAEFETIPHFSGPCDSKMKPQRLNFCRHVLAAWALGAKAFYYPEEAGLAFGGPGSSRFLRLEVHYHNPLVITGRRDSSGIRLYYTAALRRFDAGIMELGLAYTPVMAIPPQETAFVLTGYCTDKCTQLALPASGIHIFASQLHTHLTGRKVVTVLARDGRETEIVNRDNHYSPHFQEIRMLKKVVSVQPGDVLITSCTYNTEDRRLATVGGFGILEEMCVNYVHYYPQTQLELCKSAVDPGFLHKYFRLVNRFNSEEVCTCPQASVPEQFASVPWNSFNREVLKALYGFAPISMHCNRSSAVRFQGEWNRQPLPEIVSRLEEPTPHCPASQAQSPAGPTVLNISGGKG

Legend:
[1] = target: T1, Dopamine beta-hydroxylase (Bos taurus) (UniProt P15101); experiment: Kinetic parameter kcat was measured for dopamine beta-monooxygenase
T1 sequence (whole entry): B1 chain

Rattus norvegicus = organism: Rattus norvegicus; experiment: The ability to inhibit dopamine uptake was measured in rat brain striatal synaptosomes; assay type: functional
[2] = target: T1, Dopamine beta-hydroxylase (Bos taurus); experiment: Kcat/Km value of the compound; design: unit not given here
[3] = substrate: C[C@H](N)CSc1ccccc1; experiment: (§1) Kinetic parameter Km was measured for dopamine beta-monooxygenase
[4] = substrate: C[C@@H](N)CSc1ccccc1; experiment: as §1

| Molecule | k cat [1] [s⁻¹] | IC50 (Rattus norvegicus) [µM] | Ratio [2] | Km [3] [mM] | Km [4] [mM] |
| --- | --- | --- | --- | --- | --- |
| C[C@H](N)CSc1ccccc1 | 37 | 6.5 | 4800 | – | – |
| NCCc1ccc(O)cc1 | 121 | – | 60000 | – | – |
| NCCCc1ccccc1 | 17 | – | 800 | – | – |
| C[C@@H](N)CSc1ccccc1 | 13 | – | 700 | – | – |
| B1 | – | – | – | 7.7 | 19 |
